Reference: patent US20030171345A1 (priority 2001, published 2003)
Read-outs that look alike come from different tables or passages of the source.

How the values were obtained:
[1] = test system: estrogen receptor preparations from rat uteri; assay: Competitive 3H-estradiol binding, rat uterus cytosol estrogen receptor; conditions: 3H-estradiol as ligand, estradiol = 100
hERβ [2] = assay: Relative binding affinity to hERβ (Kuiper et al.); set-up: species or system human; conditions: quotient of RBA to ERβ and ERα
Excerpt: In this case, it is assumed that ERβ predominates in the rat prostates over ERα, and ERα predominates in rat uteri over ERβ.

hERβ [3] = conditions: cited from earlier work
[4] = test system: estrogen receptor preparations from rat prostates; assay: Competitive 3H-estradiol binding, rat prostate cytosol estrogen receptor; conditions: for Rat prost. ER(RBA): 3H-estradiol as ligand, rat prostate cytosol, estradiol = 100
[5] = relative binding affinity, estradiol = 100

| Compound | Rat uterus ER(RBA) [1] | ERβ/ERα (hERβ [2]) | hERβ RBA (hERβ [3]) | Rat prost. ER(RBA) [4] | prost. ER/uterus ER ([4]; ratio of the binding to prostate and uterus receptors) | hERβ RBA (hERβ [3]; [5]) |
| --- | --- | --- | --- | --- | --- | --- |
| C[C@]12CCC(O)CC1=CC[C@@H]1[C@@H]2CC[C@]2(C)C(O)CC[C@@H]12 (stereo partly drawn) [5-Androstene-diol] | 0.1 | 3 | 17 | 5 | 50 | – |
| Estradiol | 100 | – | – | 100 | – | 100 |
| C[C@]12CC[C@@H]3c4ccc(O)cc4CC[C@H]3[C@@H]1C[C@@H](O)[C@@H]2O [Estriol] | – | – | – | – | – | 21 |
